Experimental data reported in PubChem BioAssay AID1996.
Converted amounts (≈) assume the structure as drawn.

Conditions: buffer; pH 7.4; 200.0 µM

Compared with `CCOc1ccccc1NC(=O)c1cccc(N2C(=O)CCC2=O)c1`, `CCc1ccccc1NC(=O)c1ccc2c(c1)CCN2S(C)(=O)=O` is lower in solubility kinetic: greater than 50.8 µg/mL for the first, 0.8 µg/mL (≈ 2.32 µM) for the second.

First: CSCC(=O)NCC1(N(C)Cc2ccccc2)Cc2ccccc2C1
Second: COC(=O)c1cccc(NC(=O)CN2CCc3ccccc3C2)c1
The solubility kinetic of the first is higher: greater than 53.2 µg/mL for the first, 39.6 µg/mL (≈ 122 µM) for the second.

`CCS(=O)(=O)N1CCN=C1SCc1ccc(F)cc1` and `Cc1cc2ncn(S(=O)(=O)c3ccc(F)cc3)c2cc1C` are within 1.5-fold of each other in solubility kinetic: 39.9 µg/mL (≈ 132 µM) for the first, 31.8 µg/mL (≈ 104 µM) for the second.

`O=C1C2CCCN2C(=S)N1Cc1ccccc1` (centres undefined) and `c1ccc2c(c1)Sc1ccccc1N2CC1CN2CCC1CC2` (centres undefined) cannot be ordered by solubility kinetic: greater than 36.9 µg/mL for the first, greater than 48.4 µg/mL for the second.

`Clc1ccc2c(N3CCOCC3)ccnc2c1` and `Cc1ccc(-c2cc(C(=O)N3CCOCC3)no2)cc1` cannot be ordered by solubility kinetic: greater than 37.3 µg/mL for the first, greater than 40.8 µg/mL for the second.

Compared with `CNc1ccc(C(=O)OCC(=O)NC(=O)NC2CCCC2)cc1[N+](=O)[O-]`, `CN(C)c1ccc(C(=O)OCC(=O)NCCC2=CCCCC2)cc1` is 2.8-fold higher in solubility kinetic: 1.7 µg/mL (≈ 4.67 µM) for the first, 4.7 µg/mL (≈ 14.2 µM) for the second.

`c1cnc2c(c1)ccc1cccnc12` and `NS(=O)(=O)c1cc(C(=O)NCCc2ccccn2)ccc1Cl` cannot be ordered by solubility kinetic: greater than 27 µg/mL for the first, 49.1 µg/mL (≈ 144 µM) for the second.

`O=C(COC(=O)c1cc(S(=O)(=O)N2CCCC2)ccc1O)Nc1ccc(F)cc1F` and `COc1ccc(CC(=O)Nc2ccc(S(=O)(=O)N3CCCC3)cc2)cc1OC` cannot be ordered by solubility kinetic: greater than 66.1 µg/mL for the first, greater than 60.7 µg/mL for the second.

First: CSc1ncccc1C(=O)OCC(=O)C(C)(C)C
Second: CC(=O)c1c(C)[nH]c(C(=O)COC(=O)c2nccnc2N)c1C
The solubility kinetic of the first is 3.3-fold higher: 39.6 µg/mL (≈ 148 µM) for the first, 11.9 µg/mL (≈ 37.6 µM) for the second.

Compared with `O=C(Nc1ccccc1N1CCCCC1)c1ccc(Cl)cc1`, `O=C(NCC(c1ccco1)N1CCCC1)c1cc(=O)[nH]c2ccccc12` (centres undefined) is higher in solubility kinetic: 1.5 µg/mL (≈ 4.76 µM) for the first, greater than 52.7 µg/mL for the second.

Compared with `Cc1ccc(C(C[N+](=O)[O-])Sc2ccc(N)cc2)cc1` (centres undefined), `COc1ccc(CCNC(=O)c2ccc([N+](=O)[O-])cc2)cc1` is 4-fold lower in solubility kinetic: 21.4 µg/mL (≈ 74.2 µM) for the first, 5.3 µg/mL (≈ 17.6 µM) for the second.

Compared with `O=C1Nc2ccccc2O/C1=C\c1ccccc1`, `N#C/C(=C\c1ccccc1)C(=O)Nc1cccnc1` is 15-fold higher in solubility kinetic: 1.2 µg/mL (≈ 5.06 µM) for the first, 18.3 µg/mL (≈ 73.4 µM) for the second.

Going from `Cc1cc(C(C)(C)C)cc(C)c1COC(=O)CN1C(=O)NC2(CCCC2)C1=O` to `Cc1ccc2[nH]c(=O)c3cc(C(=O)NCC4CCCO4)sc3c2c1` (centres undefined), the solubility kinetic falls from 13.3 µg/mL (≈ 34.4 µM) to 1 µg/mL (≈ 2.92 µM) (13-fold).

First: C=CCn1c(Oc2ccccc2F)nc2c1c(=O)n(C)c(=O)n2C
Second: Cc1ccc(CC2CC(=O)N(c3nc4ccccc4s3)C2=O)cc1 (centres undefined)
The solubility kinetic of the first is higher: greater than 49.5 µg/mL for the first, 10.3 µg/mL (≈ 30.6 µM) for the second.

`CN1CCC(OC(c2ccccc2)c2ccccc2)CC1.Cl` and `O=c1c2ccccc2nc(Cc2ccccc2)n1-c1ccccc1O` cannot be ordered by solubility kinetic: greater than 47.7 µg/mL for the first, greater than 49.3 µg/mL for the second.

Compared with `Cc1ccc(CN2CC(C(=O)N(C)CC(=O)Nc3cccc(F)c3)CC2=O)cc1` (centres undefined), `Cc1ccc(NC(=O)COC(=O)Cc2ccc(Br)cc2)cc1S(=O)(=O)N1CCOCC1` is 3.7-fold lower in solubility kinetic: 46.2 µg/mL (≈ 116 µM) for the first, 12.4 µg/mL (≈ 24.2 µM) for the second.

First: O=C(Nc1nnc(C2=COCCO2)o1)c1cccc(F)c1
Second: COc1cccc(NC(=O)c2ccc3c(c2)CCCC3)c1
The solubility kinetic of the first is higher: greater than 43.7 µg/mL for the first, 6 µg/mL (≈ 21.3 µM) for the second.

`CN(C)c1nc2c(N)ncnc2n1[C@H]1O[C@@H](CO)[C@H](O)[C@@H]1O` and `Cc1cn(C2CC(OC(=O)C(C)C)C(CO)O2)c(=O)[nH]c1=O` (centres undefined) cannot be ordered by solubility kinetic: greater than 46.5 µg/mL for the first, greater than 46.8 µg/mL for the second.

`CN(CC(=O)O)S(=O)(=O)c1ccc2c(c1)NC(=O)CC(=O)N2` and `CN(C)CCNC(=O)C(=O)C1C(=O)Nc2ccccc21` (centres undefined) cannot be ordered by solubility kinetic: greater than 49.1 µg/mL for the first, greater than 41.3 µg/mL for the second.

Compared with `COc1ccccc1CNC(=O)C(NC(=O)c1ccccc1)C(C)C` (centres undefined), `COc1cc(C(=O)O)cc(NC(=O)c2ccco2)c1OC` is higher in solubility kinetic: 9.9 µg/mL (≈ 29.1 µM) for the first, greater than 43.7 µg/mL for the second.

`Cc1ccc2c(c1)C1(C)C(C(C)(C)N2C=O)C1(Cl)Cl` (centres undefined) and `CC1CC(=O)N(C)c2cc([N+](=O)[O-])ccc2N1` (centres undefined) cannot be ordered by solubility kinetic: 39.3 µg/mL (≈ 132 µM) for the first, greater than 35.3 µg/mL for the second.

`Cc1nc(SCC(=O)NCC2CCCO2)nc(C)c1C` (centres undefined) and `CCSc1nnc(SCC(=O)NC2CCCCC2)s1` cannot be ordered by solubility kinetic: greater than 44.3 µg/mL for the first, greater than 47.6 µg/mL for the second.

Compared with `COc1cc2ccccc2cc1C(=O)N1CC(C)OC(C)C1` (centres undefined), `CC1CN(c2nc(N(C)c3ccccc3)nc(N)c2[N+](=O)[O-])CC(C)O1` (centres undefined) is lower in solubility kinetic: greater than 44.9 µg/mL for the first, 28.6 µg/mL (≈ 79.8 µM) for the second.

Compared with `CCCNS(=O)(=O)c1cc2c3c(c1)C(C)C(=O)N3CCC2` (centres undefined), `CCOc1ccc2nc(NC(=O)CN3CCOCC3)sc2c1` is higher in solubility kinetic: 40.3 µg/mL (≈ 131 µM) for the first, greater than 48.2 µg/mL for the second.

Compared with `Cc1cc(C)cc(NC(=O)CN2C(=O)NC(Cc3c[nH]c4ccccc34)C2=O)c1` (centres undefined), `N=C1SC(CC(=O)Nc2ccc([N+](=O)[O-])cc2)C(=O)N1c1ccccc1` (centres undefined) is 2-fold lower in solubility kinetic: 2 µg/mL (≈ 5.12 µM) for the first, 1 µg/mL (≈ 2.7 µM) for the second.

Compared with `CC1(C)CC(NC(=O)c2ccc(-c3ccc([N+](=O)[O-])cc3)o2)CC(C)(C)N1`, `O=C(CSc1nnc2ccccn12)NC(=O)c1cccc([N+](=O)[O-])c1` is higher in solubility kinetic: 41.1 µg/mL (≈ 111 µM) for the first, greater than 53.6 µg/mL for the second.

Compared with `O=C(OCC(=O)N1CCc2ccccc21)c1nc(Cl)ccc1Cl`, `O=C(NC(=S)Nc1ccc(Cl)c(C(=O)O)c1)c1ccco1` is higher in solubility kinetic: 23.3 µg/mL (≈ 66.3 µM) for the first, greater than 48.7 µg/mL for the second.

Compared with `Cc1ccc(-c2nc(C(F)(F)F)cc(=O)[nH]2)cc1`, `CC1=CC(=O)C(C(C)C)=C/C1=N/OS(=O)(=O)c1ccccc1` is 2.3-fold lower in solubility kinetic: 18.4 µg/mL (≈ 72.4 µM) for the first, 7.9 µg/mL (≈ 24.7 µM) for the second.

First: OCCCC1CCCCN1Cc1nc(Cc2ccccc2Cl)no1 (centres undefined)
Second: c1csc(-c2noc(CN3CCc4sccc4C3)n2)c1
The solubility kinetic of the first is 1.6-fold higher: 43.4 µg/mL (≈ 124 µM) for the first, 27.3 µg/mL (≈ 90 µM) for the second.

`CCc1ccc(OCCn2ccnc2)cc1` gave a solubility kinetic of 19.7 µg/mL (≈ 91.1 µM).
